# Tests used:
# [1] = test system: CD44-positive SKOV3 cells; assay: Boyden chamber migration; format: cell-based, human; settings: compared to untreated control
# B16-F10 cells = assay: Inhibition of chemotaxis; format: cell-based; settings: read-out: IC50 for A6 inhibition of chemotaxis
# [2] = test system: CD44-expressing SKOV3 cells; assay: Cell binding to HA coated plates; format: cell-based, human
# From the text: (§1) A6 shares sequence homology with the Link Module of CD44. […] This effect was blocked with the anti-CD44 antibody, IM7. […] Without being bound by any particular A6 can induce conformational changes in CD44, resulting in either a lowered affinity of the epitope for DF1485, or preventing DF1485 from binding CD44. The binding of A6 to CD44 results in a modulation of CD44-mediated intracellular signaling and establishes a functional relationship between A6 and CD44 in CD44 expressing cells.
# [3] = test system: CD44-nonexpressing A278 cells; assay: Cell binding to HA coated plates; format: cell-based
# From the text: as §1
# CD44 [4] = target: T1, CD44 (Homo sapiens, UniProt P16070); assay: Perturbation of anti-CD44 antibody binding to SKOV3 cells
# T1 sequence (P16070 21-742): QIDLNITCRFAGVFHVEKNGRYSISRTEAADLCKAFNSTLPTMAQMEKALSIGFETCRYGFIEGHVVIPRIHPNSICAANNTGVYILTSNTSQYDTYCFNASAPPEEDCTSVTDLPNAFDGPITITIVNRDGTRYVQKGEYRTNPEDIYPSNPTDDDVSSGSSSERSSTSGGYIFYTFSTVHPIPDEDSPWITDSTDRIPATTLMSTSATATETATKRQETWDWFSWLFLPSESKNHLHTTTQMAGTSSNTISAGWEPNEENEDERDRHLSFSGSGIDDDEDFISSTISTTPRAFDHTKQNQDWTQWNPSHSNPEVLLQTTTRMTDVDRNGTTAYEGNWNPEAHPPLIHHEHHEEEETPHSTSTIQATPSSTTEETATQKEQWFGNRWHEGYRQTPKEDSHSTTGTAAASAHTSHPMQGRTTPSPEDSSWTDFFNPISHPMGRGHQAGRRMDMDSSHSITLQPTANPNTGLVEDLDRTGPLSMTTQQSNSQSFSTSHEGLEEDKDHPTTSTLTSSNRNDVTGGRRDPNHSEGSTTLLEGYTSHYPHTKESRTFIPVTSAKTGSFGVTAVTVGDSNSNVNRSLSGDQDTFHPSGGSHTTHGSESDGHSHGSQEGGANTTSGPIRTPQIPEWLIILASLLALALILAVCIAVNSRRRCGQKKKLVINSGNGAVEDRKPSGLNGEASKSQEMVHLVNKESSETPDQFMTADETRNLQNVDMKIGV
# CD44 [5] = target: T1, CD44; assay: Cross-linking, immunoprecipitation and immunoblotting of SKOV3 lysates; format: binding; settings: SKOV3 cells bound and cross-linked to A6
# Procedure: (§2) Human ovarian SKOV3 cells were bound and cross-linked to A6. […] To determine if this binding influenced CD44-mediated activity, and to determine if a functional relationship existed between A6 and CD44, intracellular signaling studies were conducted.
# [6] = test system: FAK phosphorylation in CD44-positive SKOV3 cells; assay: FAK phosphorylation signaling study; format: cell-based, human
# Procedure: as §2
# [7] = test system: human PC-3M-LN4 prostate cancer cells; assay: Orthotopic prostate cancer metastasis model; format: in vivo, BALB/c (nu/nu) mice
# Procedure: Prostate: A model of prostate cancer was used to evaluate the antimetastatic effect of A6 in mice. Metastases to lymph nodes were measured following the orthotopic injection of human PC-3M-LN4 prostate cancer cells into the prostates of BALB/c (nu/nu) mice.
# U87MG human glioma cells = assay: Subcutaneous glioma xenograft; format: in vivo, BALB/c (nu/nu) mice
# Procedure: Glioblastoma: In animal models of glioblastoma, U87MG human glioma cells were implanted subcutaneously or intracranially in BALB/c (nu/nu) mice and the animals were divided into different treatment groups. […] In this study the effects of cisplatin were also examined.
# B16-F10 melanoma cells = assay: B16-F10 lung metastatic model; format: in vivo, C57BL/6 mice; settings: tail vein injection; lungs evaluated at day 11
# Procedure: Melanoma: The well characterized B16-F 10 lung metastatic model was employed to determine the ability of A6 to inhibit the colonization of secondary tissues by circulating cancer cells. […] Melanoma cells were injected into the tail veins of C57BL/6 mice to simulate a burden of metastasizing cells and the lungs were then evaluated for lesions at day 11.
# [8] = test system: advanced gynecologic cancer; assay: Phase 1b trial in advanced gynecologic cancer
# Procedure: Advanced Gynecologic Cancer: A Phase 1b trial, was conducted in women with advanced gynecologic cancer. […] The study used a sequential dose-escalation design, with the lowest-dose group (4 patients) receiving A6 for cycles of 14 days “on” followed by 14 days “off”, a regimen not expected to produce any therapeutic effect. […] Patients continued treatment until disease progression or unacceptable toxicity. Response was evaluated as defined by RECIST and the Gynecologic Cancer Intergroup (GCIG) CA-125 response criteria.
# [9] = test system: choroidal neovascularization; assay: Laser-induced choroidal neovascularization (CNV); format: in vivo, mouse; settings: compared to the non-treated control group
# [10] = test system: choroidal neovascularization; assay: Laser-induced choroidal neovascularization (CNV); format: in vivo, rat; settings: subcutaneous injections; compared to non-treated controls
# [11] = test system: choroidal neovascularization; assay: Laser-induced choroidal neovascularization (CNV); format: in vivo, primate; settings: intravitreal administration; relative to control
# retina of diabetic rats = assay: Streptozotocin diabetic retinopathy model; set-up: species or system Brown Norway rats; settings: rat, in vivo
# [12] = test system: bovine retinal microvascular endothelial cells; assay: Retinal endothelial cell VE-cadherin / MMP study; format: cell-based
# [13] = test system: retinal microvascular endothelial cell invasion; assay: HGF-induced retinal endothelial cell invasion; format: cell-based
# From the text: The effect of A6 on HGF and its receptor, c-Met, in retinal angiogenesis has been examined.
# 2008/C13*5.25 cells = assay: CCK-8 cytotoxicity, A6 plus DDP; format: cell-based, human; settings: A6 1, 10 or 100 μM 1 h, then 1 h A6 plus DDP; 10% FBS
# Procedure: Conditions: Drugs: DDP (3.33 mM stock) and A6 (109.8 mM stock); Drug exposure time: 1 hour ; Cell line: 2008 and its DDP-resistant subline 2008/C31*5.25; Media: RPMI 1640 plus 10% FBS containing 1 mM penicillin/streptomycin; Cytotoxicity Assays: CCK-8 (Cell Counting Kit 8—Dojindo Molecular Technologies).
# Tissue culture plates containing 96-well plates were seeded with 3000 cells in 100 μl of media per well. The wells on rows A-D were seeded with 2008 cells, while the wells on rows E-H were seeded with 2008/C13*5.25 cells. The cells were allowed to attach overnight in a 37° C. in 5% CO2 incubator. Approximately 24 h later medium was removed by aspiration and the cells were exposed to 0, 1, 10 or 100 μM A6 peptide in 100 μl. After 1 h, increasing concentrations of DDP were added to triplicate wells in 100 μl medium. Following a 1 h exposure to the combination of A6 and DDP, the drugs were removed by aspiration. The cells were then allowed to grow for 96 h following which the plates were assayed for relative cell growth with the CCK-8 assay.
# The assay was performed using triplicate wells for each DDP concentration. […]
# A2780/CP cells = assay: CCK-8 cytotoxicity, A6 plus DDP; format: cell-based, human; settings: A6 1, 10 or 100 μM 1 h, then 1 h A6 plus DDP; 10% FBS
# Procedure: Study Conditions. Drugs: […] Drug exposure time: 1 hour; Cell line: […] Media: RPMI 1640 plus 10% FBS containing 1 mM penicillin/streptomycin; Cytotoxicity Assays: CCK-8 (Cell Counting Kit 8-Dojindo Molecular Technologies). Tissue culture plates containing 96-well plates were seeded with 4000 cells in 100 μl of media per well. The wells on rows A-[…] cells, while the wells on rows E-[…]/CP cells. […] After 1 h, increasing concentrations of DDP were added to triplicate wells in 100 μl medium. […] The cells were then allowed to grow for 96 h following which the plates were assayed for relative cell growth with the CCK-8 assay. CCK-8 assay. Five μl of CCK-8 stain was added to each well and the plate was incubated at 37° C. incubator for 4 h. The plate was read with a microplate reader at a wavelength of 450 nm. (See FIGS. 5A-5D and FIG. 6). The assay was performed using triplicate wells for each DDP concentration. The data in the tables below is the optical density in the well which is a function of the number of live cells remaining at the end of the 96 h growth period.
# [14] = test system: HEY/C2 (DDP resistant) cells; assay: CCK-8 cytotoxicity of DDP/PTX with or without A6; format: cell-based; settings: 100 μM A6; 72 hours; 10% FBS
# Procedure: The cells were plated in 96-well plates as described and incubated overnight. […] The CCK-8 assay described herein was performed to access cytotoxicity of DDP/PTX.
# breast cancer = assay: Compassionate use, breast cancer patient; format: in vivo, human; settings: A6 150 mg/day for 9 years, after Taxol 268 mg daily for 2 weeks
# Procedure: A6 was administered in combination with paclitaxel as a compassionate use.
# [15] = Clinical safety profile of A6 (summary); settings: human, in vivo
# [16] = human, in vivo
# [17] = test system: human CLL B-cell lymphocytes; assay: CLL B-cell lymphocytes in vitro
# Procedure for ovarian cancer: Asymptomatic Progression of Ovarian Cancer: A randomized, double-blind, placebo-controlled Phase 2 clinical trial evaluating A6 in women with asymptomatic CA-125 progression of ovarian cancer (“marker-only relapse” or MOR) was conducted. […] Because patients were clinically asymptomatic at the time of entry, the study was able to be placebo-controlled. The primary endpoints were time to clinical progression of disease and safety of A6. The secondary endpoints included changes in serum CA125. This study enrolled 24 patients: 12 were randomized to daily self-administration of A6 at two doses, and 12 to matching placebo injections. Both groups were followed for up to 9 months.
substance,measurement,setting,value
"Ac-KPSSPPEE-NH2 [A6, Ac-KPSSPPEE-NH2]",inhibition of migration,[1],> 85%
same,IC50,B16-F10 cells,29 nM
same,binding of cells to HA coated plates,[2],increase the binding
same,binding of cells to HA coated plates,[3],neither A6 nor IM7 had any effect
same,binding of the anti-CD44 antibody DF1485 to CD44-expressing SKOV3 cells,CD44 [4]; antibody DF1485,partial inhibition
same,binding of the anti-CD44 antibody IM7,CD44 [4]; antibody IM7,did not interfere
same,direct interaction with CD44,CD44 [5],binding to CD44
same,FAK phosphorylation,[6],modulate FAK phosphorylation
same,percentage of mice with lymph node metastases,[7]; more than 70% in the control group,≥ 22%
same,reduction of lymph node volume,"[7]; mouse, in vivo",≤ 70%
same,time to progression following discontinuation of treatment,U87MG human glioma cells,prolonged the time to progression
same,"number of lung metastases, % of control",B16-F10 melanoma cells,50%
same,median time to progression (TTP),[8]; continuous treatment,78 days
same,safety outcome,[8]; in vivo,no specific toxicity profile
same,median time to progression (TTP),"[8]; intermittent therapy (14 days on, 14 days off)",44 days
same,patients with disease stabilization,[8]; patients dosed continuously,Greater than 40%
same,inhibition of new vessel formation,[9],95%
same,reduction in CNV,[10],70%
same,reduction in CNV,[11],71%
same,increase in microvascular permeability in the retina,retina of diabetic rats,inhibits the increase
same,loss of vascular endothelial (VE)-cadherin,retina of diabetic rats,prevents the loss
same,MMP dependent VE-cadherin degradation and loss of permeability,[12],inhibit MMP dependent VE-cadherin degradation and the loss of permeability
same,secretion and activation of MMP-2 and MMP-9,[12],prevented the secretion and activation
same,HGF-induced retinal endothelial cell invasion,[13],reduced to control levels
same,modulation of sensitivity to DDP,2008/C13*5.25 cells,failed to modulate the sensitivity
same,modulation of sensitivity to DDP,A2780/CP cells,failed to modulate the sensitivity
same,sensitivity of cells to cisplatin,[14],did not affect sensitivity
same,sensitivity of cells to paclitaxel,[14],did not affect sensitivity
same,clinical outcome,breast cancer,complete remission
same,safety profile,[15],"no immunogenicity, no dose-limiting toxicities, no serious side-effects"
same,half-life,[16],1.8 to 2 h
same,adverse events,"human, in vivo",no systemic drug-related adverse events
same,cumulative increase in concentration over time,"human, in vivo",no cumulative increase in concentration over time was detected
same,anti-A6 antibody production,"subcutaneous twice daily for 6 days, day 14",no anti-A6 antibody production was detected
same,CA125 response,ovarian cancer; in vivo,not associated with CA125 response
same,complete responses,ovarian cancer; in vivo,no complete responses
same,patients achieving stable disease,ovarian cancer; in vivo,36%
same,safety profile,ovarian cancer; in vivo,comparable to that of control (placebo) treatment
same,median progression free survival (PFS),ovarian cancer; placebo 49 days,100 days
same,cytotoxicity in vitro,[17],"direct, dose-dependent, cytotoxicity"
same,expression of CD44 and ZAP-70,[17],down modulates

# — patent US20190381127A1, “COMBINATION THERAPY WITH A6, CHEMOTHERAPEUTIC AGENTS, RADIATION THERAPY, OR A COMBINATION THEREOF FOR THE TREATMENT OF CANCER” (Splash Pharmaceuticals, Inc., priority 2016, published 2019)
